Data: patent publication EP4806891A1 (Kangbaida (Sichuan) Biotechnology Co., Ltd., priority 2023, dated 2025)

Target: T1, HEK-Blue-hTLR9 cells (Homo sapiens, UniProt Q9NR96)
T1 construct: expressed in transfected cells; host or cells: HEK-Blue-hTLR9 cells (HEK293-derived reporter line)
T1 sequence (Q9NR96 26-1032): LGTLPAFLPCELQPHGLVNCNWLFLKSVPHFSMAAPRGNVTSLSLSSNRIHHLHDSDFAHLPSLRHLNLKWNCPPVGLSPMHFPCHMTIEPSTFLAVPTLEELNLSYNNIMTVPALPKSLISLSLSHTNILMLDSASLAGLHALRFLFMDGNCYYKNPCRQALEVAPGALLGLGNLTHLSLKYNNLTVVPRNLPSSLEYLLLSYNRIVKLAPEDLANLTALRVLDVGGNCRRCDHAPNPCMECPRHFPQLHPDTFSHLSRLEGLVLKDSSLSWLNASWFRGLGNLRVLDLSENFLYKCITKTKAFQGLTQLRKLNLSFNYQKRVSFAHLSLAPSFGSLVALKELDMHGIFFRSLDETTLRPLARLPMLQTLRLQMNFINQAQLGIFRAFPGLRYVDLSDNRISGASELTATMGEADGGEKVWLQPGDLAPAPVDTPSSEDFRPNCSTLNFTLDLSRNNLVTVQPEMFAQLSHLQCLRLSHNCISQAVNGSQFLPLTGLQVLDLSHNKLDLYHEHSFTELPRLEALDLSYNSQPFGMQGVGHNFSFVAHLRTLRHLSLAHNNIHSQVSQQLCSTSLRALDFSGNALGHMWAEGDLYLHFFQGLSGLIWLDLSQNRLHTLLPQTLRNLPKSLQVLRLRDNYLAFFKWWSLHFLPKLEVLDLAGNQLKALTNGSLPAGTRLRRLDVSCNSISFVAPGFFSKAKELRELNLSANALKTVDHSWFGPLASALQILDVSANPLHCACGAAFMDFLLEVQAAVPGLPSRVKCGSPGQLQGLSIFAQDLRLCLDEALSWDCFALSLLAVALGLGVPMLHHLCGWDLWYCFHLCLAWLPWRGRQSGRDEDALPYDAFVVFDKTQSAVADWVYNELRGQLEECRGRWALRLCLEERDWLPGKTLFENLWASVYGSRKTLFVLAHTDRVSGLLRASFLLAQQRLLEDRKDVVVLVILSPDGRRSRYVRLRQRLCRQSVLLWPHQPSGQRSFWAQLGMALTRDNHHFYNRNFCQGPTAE
Assay: HEK-Blue-hTLR9 cell inhibition assay
Assay type: cell-based
Conditions: ODN2006 1 µM, 16 h, OD 620 nm, read-out: TLR9 IC50
Outline: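 Cells were pre-incubated 4 h, then co-treated 16 h at 37 °C with compound (10 doses, 0.5–10000 nM final) plus R848 (0.8 µM for TLR7, 3 µM for TLR8) or ODN2006 (1 µM, TLR9). Reporter OD620 gave inhibition relative to DMSO blank and agonist-only controls; IC50 came from curve fitting.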

| IC50 [nM] | SMILES |
| --- | --- |
| > 1000 | FC(F)(F)c1ccc(N2C[C@]3(c4nnc(C5CCN(CC6CC6)CC5)o4)C[C@]3(C(F)(F)F)C2)c2cccnc12 [Compound 76, 2-(1-(cyclopropylmethyl)piperidin-4-yl)-5-((1S,5R)-5-(trifluoromethyl)-3-(8-(trifluoromethyl)quinolin-5-yl)-3-azabicyclo[3.1.0]hexan-1-yl)-1,3,4-oxadiazole] |
| > 10000 | NC(=O)CN1CCC(c2nnc([C@]34CN(c5ccc(C(F)(F)F)c6ncccc56)C[C@@]3(C(F)(F)F)C4)o2)CC1 [Compound 77, 2-(4-(5-((1S,5R)-5-(trifluoromethyl)-3-(8-(trifluoromethyl)quinolin-5-yl)-3-azabicyclo[3.1.0]hexan-1-yl)-1,3,4-oxadiazol-2-yl)piperidin-1-yl)acetamide] |
| > 1000 | N#Cc1ccc(N2C[C@]3(c4nnc(C5CCNCC5)o4)C[C@]3(C(F)(F)F)C2)c2c(F)cnn12 [Compound 80, 3-fluoro-4-((1S,5R)-1-(5-(piperidin-4-yl)-1,3,4-oxadiazol-2-yl)-5-(trifluoromethyl)-3-azabicyclo[3.1.0]hexan-3-yl)pyrazolo[1,5-a]pyridine-7-carbonitrile] |
| > 1000 | NC12CCC(c3nnc([C@]45CN(c6ccc(C(F)(F)F)c7ncccc67)C[C@@]4(C(F)(F)F)C5)o3)(CC1)CC2 [Compound 81, 4-(5-((1S,5R)-5-(trifluoromethyl)-3-(8-(trifluoromethyl)quinolin-5-yl)-3-azabicyclo[3.1.0]hexan-1-yl)-1,3,4-oxadiazol-2-yl)bicyclo[2.2.2]octan-1-amine] |
| > 1000 | CN1CCC(c2nnc([C@]34CN(c5ccc(C#N)n6ncc(Br)c56)C[C@@]3(C(F)(F)F)C4)o2)CC1 [Compound 83, 3-bromo-4-((1S,5R)-1-(5-(1-methylpiperidin-4-yl)-1,3,4-oxadiazol-2-yl)-5-(trifluoromethyl)-3-azabicyclo[3.1.0]hexan-3-yl)pyrazolo[1,5-a]pyridine-7-carbonitrile] |
| > 1000 | CN1CCC(c2nnc([C@]34CN(c5ccc(C#N)n6ncc(Cl)c56)C[C@@]3(C(F)(F)F)C4)o2)CC1 [Compound 84, 3-chloro-4-((1S,5R)-1-(5-(1-methylpiperidin-4-yl)-1,3,4-oxadiazol-2-yl)-5-(trifluoromethyl)-3-azabicyclo[3.1.0]hexan-3-yl)pyrazolo[1,5-a]pyridine-7-carbonitrile] |
| > 1000 | CN1CCC(c2nnc([C@]34CN(c5c(Br)cc(C#N)n6ncc(Br)c56)C[C@@]3(C(F)(F)F)C4)o2)CC1 [Compound 85, 3,5-dibromo-4-((1S,5R)-1-(5-(1-methylpiperidin-4-yl)-1,3,4-oxadiazol-2-yl)-5-(trifluoromethyl)-3-azabicyclo[3.1.0]hexan-3-yl)pyrazolo[1,5-a]pyridine-7-carbonitrile] |
| > 1000 | CN1CCC(c2nnc([C@]34CN(c5c(Br)cc(C#N)n6nccc56)C[C@@]3(C(F)(F)F)C4)o2)CC1 [Compound 86, 5-bromo-4-((1S,5R)-1-(5-(1-methylpiperidin-4-yl)-1,3,4-oxadiazol-2-yl)-5-(trifluoromethyl)-3-azabicyclo[3.1.0]hexan-3-yl)pyrazolo[1,5-a]pyridine-7-carbonitrile] |
| > 1000 | CN1CCC(c2nnc([C@]34CN(c5ccc(C(F)(F)F)n6nccc56)C[C@@]3(C(F)(F)F)C4)o2)CC1 [Compound 87, 2-(1-methylpiperidin-4-yl)-5-((1S,5R)-5-(trifluoromethyl)-3-(7-(trifluoromethyl)pyrazolo[1,5-a]pyridin-4-yl)-3-azabicyclo[3.1.0]hexan-1-yl)-1,3,4-oxadiazole] |

| SMILES | IC50 [nM] |
| --- | --- |
| CN1[C@@H]2CC[C@H]1C[C@H](c1nnc([C@]34CN(c5ccc(C(F)(F)F)c6ncccc56)C[C@@]3(C(F)(F)F)C4)o1)C2 [Compound 79, 2-((1R,3S,5S)-8-methyl-8-azabicyclo[3.2.1]octan-3-yl)-5-((1S,5R)-5-(trifluoromethyl)-3-(8-(trifluoromethyl)quinolin-5-yl)-3-azabicyclo[3.1.0]hexan-1-yl)-1,3,4-oxadiazole] | > 1000 |
